Patent US7112333B1, “T cell epitopes of ryegrass pollen allergen” (Heska Corporation, priority 1994, dated 2006)

System: Lol p V reactive T Cells
Test: T cell proliferation (tritiated thymidine) of Lol p V-primed T cell lines from grass-allergic patients
Type: cell-based, human
Excerpt: As discussed in Example 2, human T cell stimulating activity can be tested by culturing T cells obtained from an individual sensitive to Lol p V allergen, (i.e., an individual who has an IgE mediated immune response to Lol p V allergen) with a peptide derived from the allergen and determining whether proliferation of T cells occurs in response to the peptide as measured, e.g., by cellular uptake of tritiated thymidine. Stimulation indices for responses by T cells to peptides can be calculated as the maximum CPM in response to a peptide divided by the control CPM. A stimulation index (S.I.) equal to or greater than two times the background level is considered “positive”. Positive results are used to calculate the mean stimulation index for each peptide for the group of patients tested. In FIGS. 4 and 5 the mean T cell stimulation index is indicated above the bar. Preferred peptides of this invention comprise at least one T cell epitope and have a mean T cell stimulation index of greater than or equal to 2.0. […]
In addition, preferred peptides have a positivity index (P.I.) of at least about 60, more preferably about 100, more preferably at least about 200 and most preferably at least about 300. The positivity index for a peptide is determined by multiplying the mean T cell stimulation index by the percent of individuals, in a population of individuals sensitive to ryegrass pollen (e.g., preferably a population of at least 15 individuals, more preferably a population of at least 30 individuals or more), who have a T cell stimulation index to such peptide of at least 2.0. […]
In FIG. 5, the bar represents the cumulative rank of the peptide response in the group of patients tested as described in Example 2. To determine the cumulative rank, the 5 peptides with the highest S.I. in each individual were determined and assigned a numerical rank in descending order, with 5 representing the strongest response. […]
This amount of priming antigen was determined to be optimal for the activation of T cells from most grass-allergic patients. […]

LPIX-5: synthetic overlapping peptide derived from Lol p V, sequence in FIG. 2 (GFKAAVAAAANAPPADKFKI; Lolium perenne)
percent of positive responses (patients with S.I. of at least 2) (group of 19 patients tested, FIG. 4): 26.3%

LPIX-20: synthetic overlapping peptide derived from Lol p V, sequence in FIG. 2 (AYETYKFIPSLEAAVKQAYA; Lolium perenne)
ranked sum (cumulative rank of the peptide response) (19 patients, 5 peptides with highest S.I. per individual ranked, ranks summed, FIG. 5): highest ranked sum

rFel d I (Chain I): recombinant Fel d I chain I, control antigen in T cell assay [reference compound]
T cell proliferative response of one patient (one allergic patient, results not shown): not
